# Where a name gives a salt, the structure may show the parent alone.
# Key:
# [1] = tested on: C. freundii AmpC, TEM-1, CMY65; test: MIC, CLSI broth microdilution, beta-lactam with or without BLI; assay type: cell-based; conditions: for MIC of beta-lactam alone / MIC: no BLI; for MIC: Citrobacter freundii, read-out: MIC of beta-lactam alone
# Method: (§1) The minimal inhibitory concentration (MIC) values against each organism and drug combination were determined using the Clinical and Laboratory Standards Institute guidelines (CLSI) broth microdilution methodology (CLSI M07-A10). The recommended quality control (QC) bacterial strains E. coli ATCC 25922, E. coli ATCC 35218 and Klebsiella pneumoniae ATCC 700603 were incorporated into each test according to the CLSI guidelines to assure that there was no variation between test dates (CLSI M100-S25). The MICs of these QC strains were within QC range on all test occasions. Drug containing plates were made using the master plate method. A cefpodoxime solution was prepared to 20× concentration and 2-fold serial dilutions were made in cation adjusted Mueller-Hinton Broth. Equal volumes of 20× examplar compounds at a fixed concentration were added to the master plate. 10 uL was stamped into daughter plates using a Tecan EVO robot. Organism suspensions were adjusted to a 0.5 McFarland standard and further diluted to yield a final inoculum between 3×10^5 and 7×10^5 colony-forming units (CFU)/mL. Bacterial inocula were made in sterile, cation adjusted Mueller-Hinton Broth (Beckton Dickinson). An inoculum volume of 1.1× concentration of 90 uL was added to wells (using a Tecan EVO robot). All inoculated microdilution plates were incubated in ambient air at 35° C. for 18-24 hours.
# (§2) Following the procedure from Example 103, MICs were determined for several beta-lactams in presence of a fixed concentration (4 μg/mL) of exemplar compounds (Table 3) against 3 Enterobacteriaceae strains.
# E. coli WT (ATCC 25922) = test: as above; assay type: cell-based; conditions: for MIC of beta-lactam alone: no BLI; for MIC: Escherichia coli, ATCC25922, no BLI, read-out: MIC of beta-lactam alone
# Method: as §1, §2
# [2] = tested on: Klebsiella pneumoniae SHV-18, OXA-2, OKP-6 (ATCC 700603); test: as above; assay type: cell-based; conditions: for MIC of beta-lactam alone / MIC: no BLI; for MIC of beta-lactam alone / MIC / MIC of cefpodoxime in presence of BLI: K. pneumoniae SHV-18, OXA-2, OKP-6 (ATCC 700603); for MIC: Klebsiella pneumoniae, ATCC700603, read-out: MIC of beta-lactam alone; for MIC of cefpodoxime in presence of BLI: BLI at fixed 4 μg/mL
# Method: as §1, §2
# [3] = Rat PK, intravenous and oral; assay type: in vivo, Sprague-Dawley rats; conditions: Sprague-Dawley, plasma, 10 mg/kg; rat, PO; analyte = compound administered (sulfate-derived comparator)
# Method: Intravenous rat pharmacokinetics of exemplar compounds were determined in jugular vein cannulated Sprague-Dawley rats (n=3) (Harlan Laboratories, Indianapolis, Ind.) at a dose of 10 mg/kg. Compounds were dissolved and administered intravenously in 0.9% saline, pH 6.5 at a dose volume of 2 mL/kg. […] Oral pharmacokinetic studies were conducted with exemplar compounds at 10 mg/kg equivalents of carboxylic acids. Doses were dissolved and administered orally in 25:75 PEG400: water for injection, pH 4.5 at a dose volume of 10 mL/kg. […] Plasma samples were stored at −80° C. prior to bioanalysis.
# Plasma samples were thawed on ice prior to processing. Samples (30 μL) were diluted and proteins precipitated with 180 μL of acetonitrile containing 0.1% formic acid and 250 ng/mL of carbutamide (N1-(butylcarbanoyl)-sulfanilamide, Sigma-Aldrich Catalog # S385433) as an internal standard. Samples were vortexed for 30 seconds, centrifuged at 3400 g for 10 minutes and the supernatant transferred to injection vials.
# LC/MS/MS analysis was completed on an AB Sciex QTrap 6500 mass spectrometer in positive ionization mode, coupled to a Schimadzu Nexera LC system. A Waters Atlantis T3 (3 μm, 3.0×50 mm) column was used for chromatographic separation. Injection volume was […] The mobile phase consisted 0.1% formic acid in water (A) and 0.1% formic acid in acetonitrile (B), with a gradient of 2-98% B:A over two minutes.
# Plasma concentration vs. time profiles following intravenous (IV) administration and oral (PO) administration of exemplar compounds were analyzed by non-compartment analysis using WinNonLin 6.4.
# [4] = target: TEM-1 (Class A beta-lactamase) (Escherichia coli, UniProt P62593); test: Inhibition of beta-lactamase enzymes (nitrocefin hydrolysis), TEM-1; assay type: biochemical; conditions: read-out: Class A TEM-1 60 min IC50, nitrocefin 100 μM
# Method: (§3) A buffer consisting of 0.1 M sodium phosphate (pH 7.0), 10 mM NaHCO3, and 0.005% Triton X-100 was used for all enzymes. The chromogenic substrate nitrocefin (SynGene, Bangalore, India) was used at 100 μM. Enzyme activity was monitored by the 490 nm absorbance increase upon nitrocefin hydrolysis. Assays were performed in clear polystyrene 384-well plates (Greiner Bio-One, Monroe, N.C.). Absorbance was measured for 1 hour at 30-s intervals using a Spectramax absorbance plate reader (Molecular Devices, Sunnyvale, Calif.). Measurement of beta-lactamase inhibition by INHIBITOR employed serial 3-fold dilutions of the inhibitor in assay buffer, ranging from 100 μM to 62.7 pM. A background absorbance progress curve for a control lacking enzyme and inhibitor was subtracted from each progress curve.
# (§4) The complete set of progress curves for one enzyme with all inhibitor concentrations was subjected to numerical integration with the program Kintek Global Kinetic Explorer (Kintek Corp, Snowshoe Pa.) to obtain a best-fit to the mechanism shown in Scheme 10.
# (§5) where E, S, ES, P, I, and EI are the concentrations of the enzyme, nitrocefin, the enzyme-nitrocefin complex, the nitrocefin hydrolysis product, INHIBITOR, and the enzyme-INHIBITOR complex respectively. […] The values of k+2, k+3, and k−3 were fit. Concentration series offsets of the absorbance measurements were used to correct for slight absorbance baseline differences between wells. The parameter k+3 is equivalent to the second order rate constant kinact/Ki. In some cases, the inhibition was in rapid equilibrium on the experimental time scale, so that only the ratio k−3/k+3=Ki could be determined. Although k−3 represents reversal of inhibitor binding in Scheme 10, hydrolysis of the enzyme-inhibitor complex could not be excluded based on kinetic measurements.
# (§6) Best-fit absorbance values from the above procedure at each time point for each compound concentration were exported to Excel.
# (§7) where A is the best-fit absorbance without inhibitor and Ainhib is the best-fit absorbance in the presence of the inhibitor.
# (§8) where [I] is the inhibitor concentration and n is the Hill coefficient. The Excel add-in XLfit (ID Business Solutions) was used for nonlinear regression.
# [5] = target: OXA-48 (Class D beta-lactamase) (Klebsiella pneumoniae, UniProt Q6XEC0); test: Inhibition of beta-lactamase enzymes (nitrocefin hydrolysis), OXA-48; assay type: biochemical; conditions: read-out: Class D OXA-48 60 min IC50, nitrocefin 100 μM
# Method: as §3, §4, §5, §6, §7, §8
# [6] = tested on: E. coli ARC2687 (AmpC, CTX-M-14); test: Mouse neutropenic thigh infection model, oral efficacy of cefpodoxime proxetil with Example 35; assay type: in vivo
# Method: The oral in vivo efficacy of Example 35 was evaluated in combination with cefpodoxime proxetil in a mouse neutropenic thigh infection model versus a relevant clinical isolate. […] CD-1 mice (Charles River, Wilmington US) were housed in shoebox type cages with contact bedding and acclimated to the facility for a minimum of 2 days prior to use. The animal room was maintained at 70° F., with 50+/−10% relative humidity and a 12-hour light/dark cycle. The study was conducted using an IACUC-approved protocol in accordance with Title 9 of the Code of Federal Regulations. Animals were rendered neutropenic with two intraperitoneal doses of cyclophosphamide (150 mg/kg—4 days and 100 mg/kg—1 day prior to infection (Gerber et al. (1983) J Infect Dis 147(5); 910-917)). Animals were infected via an intramuscular challenge of ˜1×10^6 CFU administered within 100 μL of 0.9% saline. The inoculum was prepared from a 25 mL overnight culture of E. coli ARC 2687 in tryptic soy broth media. Following an OD600 determination, the inoculum was diluted in 0.9% saline to a concentration of […] prior to inoculation into the left and right thigh. Oral therapy with cefpodoxime proxetil alone and in combination with Example 35 was initiated 2 hours post bacterial challenge. Doses were suspended in 0.5% HPMC/0.1% Tween 80 and administered by oral gavage at a dose volume of 10 mL/kg. A terminal endpoint was obtained at 24 hr to determine bacterial counts in thigh tissue (CFU/gm). Animals were ethically euthanized, thighs were asceptically removed, weighed and homogenized in 1 mL of saline. Bacterial burden enumeration of tissue homogenate was performed by serial dilution on tryptic soy agar plates which were incubated overnight at 37° C. prior to colony (CFU) counting. The lower limit of detection was ˜2.6 log10 CFU/gm of tissue.
# [7] = BLI at fixed 4 μg/ml, K. pneumoniae ATCC 700603
# Chain of OXA-48 (Class D beta-lactamase) (Q6XEC0 whole entry, looked up, species assumed): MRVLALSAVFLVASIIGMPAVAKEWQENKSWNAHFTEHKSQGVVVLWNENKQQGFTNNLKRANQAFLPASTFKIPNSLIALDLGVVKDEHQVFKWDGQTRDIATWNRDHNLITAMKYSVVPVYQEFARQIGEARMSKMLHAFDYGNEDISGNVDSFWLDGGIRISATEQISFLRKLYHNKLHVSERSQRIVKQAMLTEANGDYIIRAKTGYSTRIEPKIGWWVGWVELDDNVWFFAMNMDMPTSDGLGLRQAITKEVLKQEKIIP
# Chain of TEM-1 (Class A beta-lactamase) (P62593 whole entry, looked up, species assumed): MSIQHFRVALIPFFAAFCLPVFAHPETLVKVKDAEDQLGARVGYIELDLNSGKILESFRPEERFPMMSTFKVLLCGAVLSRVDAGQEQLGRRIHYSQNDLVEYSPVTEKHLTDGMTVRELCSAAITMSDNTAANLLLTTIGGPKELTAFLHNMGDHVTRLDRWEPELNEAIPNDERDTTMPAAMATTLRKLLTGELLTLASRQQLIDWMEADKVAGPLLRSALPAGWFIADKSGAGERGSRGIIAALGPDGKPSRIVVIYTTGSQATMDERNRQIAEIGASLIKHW
structure (smiles),measurement,setting,value
"CC1(C)[C@H](NC(=O)/C(=N\OCC(=O)O)c2csc(N)n2)C(=O)N1OS(=O)(=O)O [Tigemonam, tigemonam, reference compound]",MIC of beta-lactam alone,[1],4 µg/mL
same,MIC of beta-lactam alone,E. coli WT (ATCC 25922),1 µg/mL
same,MIC of beta-lactam alone,[2],32 µg/mL
"O=C(NC1CCNCC1)[C@@H]1CC[C@@H]2CN1C(=O)N2OS(=O)(=O)O [Relebactam, reference compound]",AUC,[3],0.29 µM·h
"N#CC1CC[C@@H]2CN1C(=O)N2OS(=O)(=O)O (stereo partly shown) [WCK 4234, reference compound]",AUC,[3],0.45 µM·h
"C[C@@H](O)[C@H]1C(=O)N2C(C(=O)O)=C(SC3CN(C4=NCCS4)C3)[C@H](C)[C@H]12 [Tebipenem, tebipenem, reference compound]",MIC,[1],0.125 µg/mL
same,MIC,E. coli WT (ATCC 25922),≤ 0.06 µg/mL
same,MIC,[2],0.125 µg/mL
"CC1=C[C@@H](C(N)=O)N2C[C@@H]1N(OCC(=O)O)C2=O [Example 93, 2-(((2S,5R)-2-carbamoyl-4-methyl-7-oxo-1,6-diazabicyclo[3.2.1]oct-3-en-6-yl)oxy)acetic acid lithium salt]",IC50,[4],150 nM
same,IC50,[5],53 nM
same,MIC of cefixime in presence of BLI,[1]; BLI at fixed 4 μg/ml,≤0.06 µg/mL
same,MIC of faropenem in presence of BLI,[1]; BLI at fixed 4 μg/ml,≤0.06 µg/mL
same,MIC of tebipenem in presence of BLI,[1]; BLI at fixed 4 μg/ml,≤0.06 µg/mL
same,MIC of cefixime in presence of BLI,E. coli WT (ATCC 25922); BLI at fixed 4 μg/ml,≤0.06 µg/mL
same,MIC of faropenem in presence of BLI,E. coli WT (ATCC 25922); BLI at fixed 4 μg/ml,≤0.06 µg/mL
same,MIC of tebipenem in presence of BLI,E. coli WT (ATCC 25922); BLI at fixed 4 μg/ml,≤0.06 µg/mL
same,MIC of cefpodoxime in presence of BLI,[2]; lithium salt,0.125 µg/mL
same,MIC of cefixime in presence of BLI,[2]; [7],0.125 µg/mL
same,MIC of faropenem in presence of BLI,[2]; [7],1 µg/mL
same,MIC of tebipenem in presence of BLI,[2]; [7],≤0.06 µg/mL
"COCC1=C(C(=O)OC(C)OC(=O)OC(C)C)N2C(=O)[C@@H](NC(=O)/C(=N\OC)c3csc(N)n3)[C@H]2SC1 (stereo partly shown) [Cefpodoxime proxetil, cefpodoxime proxetil, reference compound]",log10CFU/gm thigh,"[6]; cefpodoxime proxetil alone 50 mg/kg PO/q6h, mouse neutropenic thigh, E. coli ARC2687",10.24 log10CFU/gm thigh
same,CFU Change from 26 hr,"[6]; cefpodoxime proxetil alone 50 mg/kg PO/q6h, relative to 26 hr growth control",−0.62 log10 CFU/gm
same,CFU Change from 2 hr,"[6]; cefpodoxime proxetil alone 50 mg/kg PO/q6h, relative to initiation of therapy",+3.97 log10 CFU/gm
same,growth of bacterial burden in thighs after 24 hours of therapy,"[6]; cefpodoxime proxetil alone at 50 mg/kg q6h, oral, neutropenic CD-1 mice",greater than 3 log10 CFU/gm
"CC1=C[C@@H]2CN(C(=O)N2O[C@@H](F)C(=O)O)[C@@H]1C(=O)NCCNS(N)(=O)=O [Example 75, (2S)-2-fluoro-2-[[(2S,5R)-3-methyl-7-oxo-2-[2-(sulfamoylamino)ethyl-carbamoyl]-1,6-diazabicyclo[3.2.1]oct-3-en-6-yl]oxy]acetic acid lithium salt]",IC50,[4],83 nM
same,IC50,[5],420 nM
same,MIC of cefpodoxime in presence of BLI,[2],0.125 µg/mL
"CO/N=C(\C(=O)N[C@@H]1C(=O)N2C(C(=O)O)=C(COC(N)=O)CS[C@H]12)c1ccco1 [Cefuroxime, cefuroxime, reference compound]",MIC of beta-lactam alone,[1],>64 µg/mL
same,MIC of beta-lactam alone,E. coli WT (ATCC 25922),4 µg/mL
same,MIC of beta-lactam alone,[2],32 µg/mL
"N[C@@H](C(=O)N[C@@H]1C(=O)N2C(C(=O)O)=C(Cl)CC[C@H]12)c1ccccc1 [Loracarbef, loracarbef, reference compound]",MIC of beta-lactam alone,[1],>64 µg/mL
same,MIC of beta-lactam alone,E. coli WT (ATCC 25922),2 µg/mL
same,MIC of beta-lactam alone,[2],32 µg/mL
"C[C@@H](O)[C@H]1C(=O)N2C(C(=O)O)=C([C@H]3CCCO3)S[C@H]12 [Faropenem, faropenem, reference compound]",MIC,[1],8 µg/mL
same,MIC,E. coli WT (ATCC 25922),0.5 µg/mL
same,MIC,[2],8 µg/mL
"CC1=C[C@@H]2CN(C(=O)N2OS(=O)(=O)O)[C@@H]1C(N)=O [ETX2514, reference compound]",AUC,[3],0.44 µM·h
"C=CC1=C(C(=O)O)N2C(=O)[C@@H](NC(=O)/C(=N\OCC(=O)O)c3csc(N)n3)[C@H]2SC1 [Cefixime, cefixime, reference compound]",MIC of beta-lactam alone,[1],>64 µg/mL
same,MIC of beta-lactam alone,E. coli WT (ATCC 25922),0.5 µg/mL
same,MIC of beta-lactam alone,[2],8 µg/mL
